From the supplement of paper PMC10307832

How the values were obtained:
Assay in all cases: relative viability (nuclei count vs DMSO), 5 days (fraction); higher = more cells survive
[1] = compound: Nc1nc2[nH]cc(CCc3ccc(C(=O)N[C@@H](CCC(=O)O)C(=O)O)cc3)c2c(=O)[nH]1 [Pemetrexed] + CS(=O)(=O)CCNCc1ccc(-c2ccc3ncnc(Nc4ccc(OCc5cccc(F)c5)c(Cl)c4)c3c2)o1 [Lapatinib] (partner 2 µM)
In short: (§1)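 Values are medians from duplicate plates. Each reflects relative viability, defined as the nuclei count of treated wells over that of vehicle wells. Lung cancer cell lines in 1536-well plates were pin-tool dosed one day after seeding with one drug alone or with a fixed anchor-drug dose plus five library-drug doses (not always all listed) in √10 steps, then fixed, stained and imaged at 4× after 5 days.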

[2] = compound: CC[C@H](Nc1ncnc2[nH]cnc12)c1nc2cccc(F)c2c(=O)n1-c1ccccc1 [Idelalisib] + O=C(c1cc(Cc2n[nH]c(=O)c3ccccc23)ccc1F)N1CCN(C(=O)C2CC2)CC1 [Olaparib] (partner 8 µM)
In short: as §1

[3] = compound: Nc1nc2[nH]cc(CCc3ccc(C(=O)N[C@@H](CCC(=O)O)C(=O)O)cc3)c2c(=O)[nH]1 [Pemetrexed] + COc1cc2c(Oc3ccc(NC(=O)C4(C(=O)Nc5ccc(F)cc5)CC4)cc3F)ccnc2cc1OCCCN1CCOCC1 [Foretinib] (partner 0.25 µM)
In short: as §1

[4] = compound: Nc1nc2[nH]cc(CCc3ccc(C(=O)N[C@@H](CCC(=O)O)C(=O)O)cc3)c2c(=O)[nH]1 [Pemetrexed] + Cc1cc(Nc2cc(N3CCN(C)CC3)nc(Sc3ccc(NC(=O)C4CC4)cc3)n2)n[nH]1 [Tozasertib] (partner 0.1 µM)
In short: as §1

Calu-6
relative viability ([1]; first compound 0.002 µM): 1.09
relative viability ([1]; first compound 0.006325 µM): 1.02
relative viability ([1]; first compound 0.02 µM): 1.18
relative viability ([1]; first compound 0.06325 µM): 0.999
relative viability ([1]; first compound 0.2 µM): 0.84
relative viability ([2]; first compound 0.04 µM): 0.669
relative viability ([2]; first compound 0.1265 µM): 0.61
relative viability ([2]; first compound 0.4 µM): 0.533
relative viability ([2]; first compound 1.265 µM): 0.657
relative viability ([2]; first compound 4 µM): 0.53
relative viability ([3]; first compound 0.002 µM): 0.821
relative viability ([3]; first compound 0.006325 µM): 0.877
relative viability ([3]; first compound 0.02 µM): 0.95
relative viability ([3]; first compound 0.06325 µM): 0.888
relative viability ([3]; first compound 0.2 µM): 0.845

ChaGo-K-1
relative viability ([4]; first compound 0.002 µM): 0.24
relative viability ([4]; first compound 0.006325 µM): 0.218
relative viability ([4]; first compound 0.02 µM): 0.25
relative viability ([4]; first compound 0.06325 µM): 0.212
relative viability ([4]; first compound 0.2 µM): 0.176
relative viability ([2]; first compound 0.04 µM): 0.347
relative viability ([2]; first compound 0.1265 µM): 0.399
relative viability ([2]; first compound 0.4 µM): 0.472
relative viability ([2]; first compound 1.265 µM): 0.38
relative viability ([2]; first compound 4 µM): 0.379
relative viability ([3]; first compound 0.002 µM): 0.991
relative viability ([3]; first compound 0.006325 µM): 0.919
relative viability ([3]; first compound 0.02 µM): 0.948
relative viability ([3]; first compound 0.06325 µM): 0.529
relative viability ([3]; first compound 0.2 µM): 0.301

EBC-1
relative viability ([1]; first compound 0.002 µM): 0.22
relative viability ([1]; first compound 0.006325 µM): 0.193
relative viability ([1]; first compound 0.02 µM): 0.205
relative viability ([1]; first compound 0.06325 µM): 0.214
relative viability ([1]; first compound 0.2 µM): 0.192
relative viability ([2]; first compound 0.04 µM): 0.721
relative viability ([2]; first compound 0.1265 µM): 0.777
relative viability ([2]; first compound 0.4 µM): 0.763
relative viability ([2]; first compound 1.265 µM): 0.65
relative viability ([2]; first compound 4 µM): 0.588
relative viability ([3]; first compound 0.002 µM): 0.117
relative viability ([3]; first compound 0.006325 µM): 0.112
relative viability ([3]; first compound 0.02 µM): 0.107
relative viability ([3]; first compound 0.06325 µM): 0.0993
relative viability ([3]; first compound 0.2 µM): 0.0915

EKVX
relative viability ([4]; first compound 0.002 µM): 0.373
relative viability ([4]; first compound 0.006325 µM): 0.398
relative viability ([4]; first compound 0.02 µM): 0.37
relative viability ([4]; first compound 0.06325 µM): 0.367
relative viability ([4]; first compound 0.2 µM): 0.263
relative viability ([1]; first compound 0.002 µM): 0.17
relative viability ([1]; first compound 0.006325 µM): 0.191
relative viability ([1]; first compound 0.02 µM): 0.194
relative viability ([1]; first compound 0.06325 µM): 0.185
relative viability ([1]; first compound 0.2 µM): 0.182
relative viability ([2]; first compound 0.04 µM): 0.756
relative viability ([2]; first compound 0.1265 µM): 0.915
relative viability ([2]; first compound 0.4 µM): 0.755
relative viability ([2]; first compound 1.265 µM): 0.884
relative viability ([2]; first compound 4 µM): 0.74
relative viability ([3]; first compound 0.002 µM): 0.733
relative viability ([3]; first compound 0.006325 µM): 0.795
relative viability ([3]; first compound 0.02 µM): 1.05
relative viability ([3]; first compound 0.06325 µM): 0.908
relative viability ([3]; first compound 0.2 µM): 0.491

EMC-BAC-2
relative viability ([4]; first compound 0.002 µM): 0.327
relative viability ([4]; first compound 0.006325 µM): 0.255
relative viability ([4]; first compound 0.02 µM): 0.296
relative viability ([4]; first compound 0.06325 µM): 0.278
relative viability ([4]; first compound 0.2 µM): 0.244
relative viability ([1]; first compound 0.002 µM): 0.792
relative viability ([1]; first compound 0.006325 µM): 0.777
relative viability ([1]; first compound 0.02 µM): 0.961
relative viability ([1]; first compound 0.06325 µM): 0.903
relative viability ([1]; first compound 0.2 µM): 0.888
relative viability ([2]; first compound 0.04 µM): 0.459
relative viability ([2]; first compound 0.1265 µM): 0.518
relative viability ([2]; first compound 0.4 µM): 0.477
relative viability ([2]; first compound 1.265 µM): 0.472
relative viability ([2]; first compound 4 µM): 0.476
relative viability ([3]; first compound 0.002 µM): 1.02
relative viability ([3]; first compound 0.006325 µM): 0.923
relative viability ([3]; first compound 0.02 µM): 1.01
relative viability ([3]; first compound 0.06325 µM): 1
relative viability ([3]; first compound 0.2 µM): 0.902

EPLC-272H
relative viability ([4]; first compound 0.002 µM): 0.284
relative viability ([4]; first compound 0.006325 µM): 0.261
relative viability ([4]; first compound 0.02 µM): 0.225
relative viability ([4]; first compound 0.06325 µM): 0.251
relative viability ([4]; first compound 0.2 µM): 0.306
relative viability ([1]; first compound 0.002 µM): 0.806
relative viability ([1]; first compound 0.006325 µM): 1.04
relative viability ([1]; first compound 0.02 µM): 1.16
relative viability ([1]; first compound 0.06325 µM): 0.972
relative viability ([1]; first compound 0.2 µM): 1.04
relative viability ([2]; first compound 0.04 µM): 1.01
relative viability ([2]; first compound 0.1265 µM): 0.916
relative viability ([2]; first compound 0.4 µM): 0.686
relative viability ([2]; first compound 1.265 µM): 0.637
relative viability ([2]; first compound 4 µM): 0.619
relative viability ([3]; first compound 0.002 µM): 0.648
relative viability ([3]; first compound 0.006325 µM): 0.609
relative viability ([3]; first compound 0.02 µM): 0.774
relative viability ([3]; first compound 0.06325 µM): 0.678
relative viability ([3]; first compound 0.2 µM): 0.573

H3255
relative viability ([4]; first compound 0.002 µM): 0.653
relative viability ([4]; first compound 0.006325 µM): 0.707
relative viability ([4]; first compound 0.02 µM): 0.754
relative viability ([4]; first compound 0.06325 µM): 0.709
relative viability ([4]; first compound 0.2 µM): 0.555
relative viability ([1]; first compound 0.006325 µM): 0.15
relative viability ([1]; first compound 0.02 µM): 0.278
relative viability ([1]; first compound 0.06325 µM): 0.245
relative viability ([1]; first compound 0.2 µM): 0.296
relative viability ([2]; first compound 0.04 µM): 0.567
relative viability ([2]; first compound 0.1265 µM): 0.555
relative viability ([2]; first compound 0.4 µM): 0.534
relative viability ([2]; first compound 1.265 µM): 0.573
relative viability ([2]; first compound 4 µM): 0.513
relative viability ([3]; first compound 0.002 µM): 0.608
relative viability ([3]; first compound 0.006325 µM): 0.924
relative viability ([3]; first compound 0.02 µM): 1.07
relative viability ([3]; first compound 0.06325 µM): 0.943
relative viability ([3]; first compound 0.2 µM): 0.741

HARA
relative viability ([4]; first compound 0.002 µM): 0.13
relative viability ([4]; first compound 0.006325 µM): 0.0932
relative viability ([4]; first compound 0.02 µM): 0.123
relative viability ([4]; first compound 0.06325 µM): 0.0911
relative viability ([4]; first compound 0.2 µM): 0.0832
relative viability ([1]; first compound 0.002 µM): 0.681
relative viability ([1]; first compound 0.006325 µM): 0.747
relative viability ([1]; first compound 0.02 µM): 1.01
relative viability ([1]; first compound 0.06325 µM): 0.674
relative viability ([1]; first compound 0.2 µM): 0.365
relative viability ([2]; first compound 0.04 µM): 0.738
relative viability ([2]; first compound 0.1265 µM): 0.998
relative viability ([2]; first compound 1.265 µM): 0.758
relative viability ([2]; first compound 4 µM): 0.792
relative viability ([3]; first compound 0.002 µM): 0.856
relative viability ([3]; first compound 0.006325 µM): 0.87
relative viability ([3]; first compound 0.02 µM): 1
relative viability ([3]; first compound 0.06325 µM): 0.846
relative viability ([3]; first compound 0.2 µM): 0.393

HCC-15
relative viability ([4]; first compound 0.002 µM): 0.431
relative viability ([4]; first compound 0.006325 µM): 0.394
relative viability ([4]; first compound 0.02 µM): 0.497
relative viability ([4]; first compound 0.06325 µM): 0.407
relative viability ([4]; first compound 0.2 µM): 0.205
relative viability ([1]; first compound 0.002 µM): 0.751
relative viability ([1]; first compound 0.006325 µM): 0.763
relative viability ([1]; first compound 0.02 µM): 1
relative viability ([1]; first compound 0.06325 µM): 0.655
relative viability ([1]; first compound 0.2 µM): 0.444
relative viability ([2]; first compound 0.04 µM): 0.743
relative viability ([2]; first compound 0.1265 µM): 0.583
relative viability ([2]; first compound 0.4 µM): 0.699
relative viability ([2]; first compound 1.265 µM): 0.799
relative viability ([2]; first compound 4 µM): 0.707
relative viability ([3]; first compound 0.002 µM): 0.987
relative viability ([3]; first compound 0.006325 µM): 0.987
relative viability ([3]; first compound 0.02 µM): 1.06
relative viability ([3]; first compound 0.06325 µM): 0.645
relative viability ([3]; first compound 0.2 µM): 0.219
